Laboratory results taken from patent publication EP4559911A1, “NOVEL HETEROCYCLIC COMPOUND AND PHARMACEUTICAL COMPOSITION FOR INHIBITING AUTOTAXIN COMPRISING THE SAME” (Nextgen Bioscience Co., Ltd., priority 2022, dated 2024).

Biological target: human Autotaxin protein (Homo sapiens, UniProt Q13822)
Test: Evaluation of the inhibitory activity against human Autotaxin protein (18:1 LysoPC substrate, choline assay kit, absorbance at 570 nm)
Format: biochemical
Conditions: compound at 500nM; 2 hours at 37 °C; % inhibition = (1 - absorbance test group / absorbance control group) X 100
Experimental: Solutions of each compound synthesized (80 uM, 100% dimethyl sulfoxide) were sequentially diluted 5-fold with dimethyl sulfoxide to prepare 6 concentrations. Each concentration of the compound was diluted 2-fold with 1x test buffer (50 mM Tris-Cl (pH 8.0), 5 mM KCl, 1 mM CaCl2, 1 mM MgCl2, 140 mM NaCl, deionized water, 1 mg/mL BSA), and 1 uL (1.25% dimethyl sulfoxide) of this diluted mixture was dispensed into each well of a 96-well clear round-bottom plate. 9 uL of 1x test buffer was added, and 20 uL of 240 nM human autotaxin protein (buffer: 50 mM Tris-HCl, pH 8.0, with 150 mM sodium chloride and 20% glycerol) was added. 10 uL of sonicated 360 uM 18:1 LysoPC (diluted with 1x assay buffer) was added. The reaction was performed for 2 hours in a shaking incubator at 37 °C, and a secondary reaction mixture (choline assay kit, KA1662) (65 uL of 1x assay buffer: 1 uL of choline oxidase: 1 uL of dye probe) was prepared. 60 uL of the secondary reaction mixture was added to the plate where the reaction was performed, and incubated for 30 minutes in a shaker. The absorbance value was measured at a wavelength of 570 nm using a SpectraMax iD3 microplate reader. The percentage inhibition activity value (% inhibition) was calculated by the formula: (1 - absorbance value test group / absorbance value control group) X 100.

Row | SMILES | inhibition at 0.5 µM [%]
1 | O=C(O)CC1CCN(c2nnc(-c3cnc(NC4Cc5cc(F)c(F)cc5C4)nc3)o2)C1 (stereo not drawn) [Example 25, 2-(1-(5-(2-((5,6-difluoro-2,3-dihydro-1H-inden-2-yl)amino)pyrimidin-5-yl)-1,3,4-oxadiazol-2-yl)pyrrolidin-3-yl)acetic acid] | 1.8
2 | COC(=O)CC1CN(c2nnc(-c3cnc(NC4Cc5cc(F)c(F)cc5C4)nc3)o2)C1 [Example 52, Methyl 2-(1-(5-(2-((5,6-difluoro-2,3-dihydro-1H-inden-2-yl)amino)pyrimidin-5-yl)-1,3,4-oxadiazol-2-yl)azetidin-3-yl)acetate] | 21.9
3 | CC(C)(C)C(=O)OCn1cc(C2CCN(c3nnc(-c4cnc(NCc5ccc6c(c5)OCO6)nc4)o3)C2)nn1 (stereo not drawn) [Example 5, (4-(1-(5-(2-((benzo[d][1,3]dioxol-5-ylmethyl)amino)pyrimidin-5-yl)-1,3,4-oxadiazol-2-yl)pyrrolidin-3-yl)-1H-1,2,3-triazol-1-yl)methyl pivalate] | 7.6
4 | Cc1ncn(C2CN(c3nnc(-c4cnc(NC5Cc6cc(F)c(F)cc6C5)nc4)o3)C2)n1 [Example 80, N-(5,6-difluoro-2,3-dihydro-1H-inden-2-yl)-5-(5-(3-(3-methyl-1H-1,2,4-triazol-1-yl)azetidin-1-yl)-1,3,4-oxadiazol-2-yl)pyrimidin-2-amine] | 10.4
5 | O=C(/C=C/c1cnc(NC2Cc3cc(F)c(F)cc3C2)nc1)N1CC(c2c[nH]nn2)C1 [Example 40, (E)-1-(3-(1H-1,2,3-triazol-4-yl)azetidin-1-yl)-3-(2-((5,6-difluoro-2,3-dihydro-1H-inden-2-yl)amino)pyrimidin-5-yl)prop-2-en-1-one] | 98.6
6 | CC(C)(C)C(=O)OCn1cc(C2CN(c3nnc(-c4cnc(NC5Cc6cccnc6C5)nc4)o3)C2)nn1 (stereo not drawn) [Example 73, (4-(1-(5-(2-((6,7-dihydro-5H-cyclopenta[b]pyridin-6-yl)amino)pyrimidin-5-yl)-1,3,4-oxadiazol-2-yl)azetidin-3-yl)-1H-1,2,3-triazol-1-yl)methyl pivalate] | 1.2
7 | CC1(c2c[nH]nn2)CN(C(=O)/C=C/c2cnc(NC3Cc4cc(F)c(F)cc4C3)nc2)C1 [Example 78, (E)-3-(2-((5,6-difluoro-2,3-dihydro-1H-inden-2-yl)amino)pyrimidin-5-yl)-1-(3-methyl-3-(1H-1,2,3-triazol-4-yl)azetidin-1-yl)prop-2-en-1-one] | 99.1
8 | CS(=O)(=O)OC1CN(c2nnc(-c3cnc(NC4Cc5cc(F)c(F)cc5C4)nc3)o2)C1 [Example 55, 1-(5-(2-((5,6-difluoro-2,3-dihydro-1H-inden-2-yl)amino)pyrimidin-5-yl)-1,3,4-oxadiazol-2-yl)azetidin-3-yl methanesulfonate] | 17.6
9 | Cn1nncc1C1CN(c2nnc(-c3cnc(NC4Cc5cc(F)c(F)cc5C4)nc3)o2)C1 [Example 41, N-(5,6-difluoro-2,3-dihydro-1H-inden-2-yl)-5-(5-(3-(1-methyl-1H-1,2,3-triazol-5-yl)azetidin-1-yl)-1,3,4-oxadiazol-2-yl)pyrimidin-2-amine] | 70.6
10 | Fc1cc2c(cc1F)CC(Nc1ccc(-c3nnc(N4CC(c5c[nH]nn5)C4)o3)cn1)C2 [Example 54, 5-(5-(3-(1H-1,2,3-triazol-4-yl)azetidin-1-yl)-1,3,4-oxadiazol-2-yl)-N-(5,6-difluoro-2,3-dihydro-1H-inden-2-yl)pyridin-2-amine] | 23.4
11 | Fc1cc2c(cc1F)CC(Nc1ncc(-c3nnc(N4CC(c5nnc(C(F)F)o5)C4)o3)cn1)C2 [Example 61, N-(5,6-difluoro-2,3-dihydro-1H-inden-2-yl)-5-(5-(3-(5-(difluoromethyl)-1,3,4-oxadiazol-2-yl)azetidin-1-yl)-1,3,4-oxadiazol-2-yl)pyrimidin-2-amine] | 1

Results, then the compound that gave them:

Row | inhibition at 0.5 µM [%] | SMILES
12 | 49.5 | c1cnc2c(c1)CC(Nc1ncc(-c3nnc(N4CCC(c5c[nH]nn5)C4)o3)cn1)C2 (stereo not drawn) [Example 8, N-(5-(5-(3-(1H-1,2,3-triazol-4-yl)pyrrolidin-1-yl)-1,3,4-oxadiazol-2-yl)pyrimidin-2-yl)-6,7-dihydro-5H-cyclopenta[b]pyridin-6-amine]
13 | 17.6 | Fc1cc2c(cc1F)CC(Nc1ncc(-c3nnc(N4CC(c5nnn[nH]5)C4)o3)cn1)C2 [Example 68, 5-(5-(3-(1H-tetrazol-5-yl)azetidin-1-yl)-1,3,4-oxadiazol-2-yl)-N-(5,6-difluoro-2,3-dihydro-1H-inden-2-yl)pyrimidin-2-amine]
14 | 97.8 | c1ccc2c(c1)CC(Nc1ncc(-c3nnc(N4CC(c5c[nH]nn5)C4)o3)cn1)C2 [Example 42, 5-(5-(3-(1H-1,2,3-triazol-4-yl)azetidin-1-yl)-1,3,4-oxadiazol-2-yl)-N-(2,3-dihydro-1H-inden-2-yl)pyrimidin-2-amine]
15 | 19.8 | c1cc2c(cn1)CC(Nc1ncc(-c3nnc(N4CC(c5c[nH]nn5)C4)o3)cn1)C2 (stereo not drawn) [Example 85, N-(5-(5-(3-(1H-1,2,3-triazol-4-yl)azetidin-1-yl)-1,3,4-oxadiazol-2-yl)pyrimidin-2-yl)-6,7-dihydro-5H-cyclopenta[c]pyridin-6-amine]
16 | 97.4 | Fc1ccc2c(c1)CC(Nc1ncc(-c3nnc(N4CCC(c5c[nH]nn5)C4)o3)cn1)C2 (stereo not drawn) [Example 36, 5-(5-(3-(1H-1,2,3-triazol-4-yl)pyrrolidin-1-yl)-1,3,4-oxadiazol-2-yl)-N-(5-fluoro-2,3-dihydro-1H-inden-2-yl)pyrimidin-2-amine]
17 | 1.3 | Cn1cc(C2CCN(c3nnc(-c4cnc(NC5Cc6cc(F)c(F)cc6C5)nc4)o3)C2)nn1 (stereo not drawn) [Example 35, N-(5,6-difluoro-2,3-dihydro-1H-inden-2-yl)-5-(5-(3-(1-methyl-1H-1,2,3-triazol-4-yl)pyrrolidin-1-yl)-1,3,4-oxadiazol-2-yl)pyrimidin-2-amine]
18 | 1 | CC(C)(C)C(=O)OCn1cc(C2CN(c3nnc(-c4cnc(NC5Cc6ccc(F)cc6C5)nc4)o3)C2)nn1 (stereo not drawn) [Example 63, (4-(1-(5-(2-((5-fluoro-2,3-dihydro-1H-inden-2-yl)amino)pyrimidin-5-yl)-1,3,4-oxadiazol-2-yl)azetidin-3-yl)-1H-1,2,3-triazol-1-yl)methyl pivalate]
19 | 9.6 | COc1ccc2c(c1)CC(Nc1ncc(-c3nnc(N4CC(c5cn(COC(=O)C(C)(C)C)nn5)C4)o3)cn1)C2 (stereo not drawn) [Example 70, (4-(1-(5-(2-((5-methoxy-2,3-dihydro-1H-inden-2-yl)amino)pyrimidin-5-yl)-1,3,4-oxadiazol-2-yl)azetidin-3-yl)-1H-1,2,3-triazol-1-yl)methyl pivalate]
20 | 96.8 | CC1(c2c[nH]nn2)CCN(c2nnc(-c3cnc(NC4Cc5ccccc5C4)nc3)o2)C1 (stereo not drawn) [Example 31, N-(2,3-dihydro-1H-inden-2-yl)-5-(5-(3-methyl-3-(1H-1,2,3-triazol-4-yl)pyrrolidin-1-yl)-1,3,4-oxadiazol-2-yl)pyrimidin-2-amine]
21 | 84.6 | Cc1[nH]nnc1C1CN(c2nnc(-c3cnc(NC4Cc5cc(F)c(F)cc5C4)nc3)o2)C1 [Example 75, N-(5,6-difluoro-2,3-dihydro-1H-inden-2-yl)-5-(5-(3-(5-methyl-1H-1,2,3-triazol-4-yl)azetidin-1-yl)-1,3,4-oxadiazol-2-yl)pyrimidin-2-amine]
